The source of these data is patent US4350704A, “Substituted acyl derivatives of octahydro-1H-indole-2-carboxylic acids” (Warner-Lambert Company, priority 1981, dated 1982).

The target in the test is T1, guinea pig serum ACE (Cavia porcellus, UniProt H0UWL7).
T1 construct: ACE from guinea pig serum; from tissue; host or cells: guinea pig serum
T1 sequence (H0UWL7 33-1302): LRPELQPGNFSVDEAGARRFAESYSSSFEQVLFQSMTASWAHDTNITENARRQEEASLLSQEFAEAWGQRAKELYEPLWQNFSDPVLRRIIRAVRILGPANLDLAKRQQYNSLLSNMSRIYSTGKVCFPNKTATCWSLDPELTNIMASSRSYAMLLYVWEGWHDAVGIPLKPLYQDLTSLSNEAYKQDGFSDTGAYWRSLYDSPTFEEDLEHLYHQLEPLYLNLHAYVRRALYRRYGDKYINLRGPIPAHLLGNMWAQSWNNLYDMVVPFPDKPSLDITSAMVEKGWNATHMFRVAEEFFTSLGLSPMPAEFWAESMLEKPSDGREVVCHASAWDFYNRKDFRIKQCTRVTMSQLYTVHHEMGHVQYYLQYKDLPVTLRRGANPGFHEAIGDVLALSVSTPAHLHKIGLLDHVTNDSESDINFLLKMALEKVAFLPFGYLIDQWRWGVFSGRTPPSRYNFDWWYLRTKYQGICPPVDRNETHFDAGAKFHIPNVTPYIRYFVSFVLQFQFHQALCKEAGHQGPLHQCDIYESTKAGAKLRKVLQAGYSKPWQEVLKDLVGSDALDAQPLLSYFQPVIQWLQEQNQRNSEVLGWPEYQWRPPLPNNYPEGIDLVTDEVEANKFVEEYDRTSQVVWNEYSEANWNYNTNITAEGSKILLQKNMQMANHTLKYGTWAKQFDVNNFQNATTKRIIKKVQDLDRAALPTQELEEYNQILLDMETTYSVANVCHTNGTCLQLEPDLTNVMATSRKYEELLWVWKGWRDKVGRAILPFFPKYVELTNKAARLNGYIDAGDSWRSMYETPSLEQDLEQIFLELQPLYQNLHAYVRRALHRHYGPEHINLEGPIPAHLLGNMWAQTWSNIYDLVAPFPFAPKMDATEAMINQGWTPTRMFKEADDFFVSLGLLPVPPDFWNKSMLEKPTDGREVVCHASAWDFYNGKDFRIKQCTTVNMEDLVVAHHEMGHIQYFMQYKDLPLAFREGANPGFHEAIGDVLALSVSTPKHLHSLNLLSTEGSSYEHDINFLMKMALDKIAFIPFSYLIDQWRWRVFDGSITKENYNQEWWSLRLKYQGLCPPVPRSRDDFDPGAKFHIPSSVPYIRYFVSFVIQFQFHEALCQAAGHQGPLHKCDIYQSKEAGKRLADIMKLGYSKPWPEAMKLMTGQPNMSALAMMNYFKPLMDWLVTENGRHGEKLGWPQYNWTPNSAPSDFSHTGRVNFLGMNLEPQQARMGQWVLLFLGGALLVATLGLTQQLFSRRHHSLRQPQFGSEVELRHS
As to the kind of experiment: In vitro ACE Assay: angiotensin converting enzyme inhibitory activity. Conditions: 10 min preincubation, 3H-hippuryl-glycylglycine substrate, 60 minute incubation at 37° C., read-out: IC50, Activity of Compounds of Formula V. Type of test: biochemical. The method, then: In vitro ACE Assay: Angiotensin converting enzyme (ACE) inhibitory activity is determined by assaying guinea pig serum ACE in the presence and absence of the test compound. ACE from guinea pig serum and the test compounds are preincubated for 10 minutes before the addition of the labelled substrate ^3 H-hippuryl-glycylglycine. […] ACE cleaves the hippuryl-glycyl bond to form the dipeptide glycyl-glycine and ^3 H-hippuric acid. The ^3 H-hippuric acid is then extracted with ethyl acetate and the ACE inhibition of a given sample calculated on the basis of the ^3 H-hippuric acid generated.

Structures can show the parent of a compound that is named as a salt.

Regarding `CC(CSC(=O)c1ccccc1)C(=O)N1[C@H](C(=O)O)C[C@@H]2CCCC[C@@H]21` (single isomer, unassigned; diastereomer a) [V: R=H; R1=CH3; R2=PhCO; l, A, (1)-(2α, 3aβ, 7aβ)-Octahydro-1-[3-(benzoylthio)-2-methylpropanoyl]-1H-indole-2-carboxylic Acid (Diastereomer A)], the IC50 (as a rule, the midpoint of a concentration-inhibition curve) was determined as 540 nM.
As to `CCOC(=O)[C@@H]1C[C@@H]2CCCC[C@@H]2N1C(=O)CCSC(C)=O` (relative stereo) [V: R=C2H5; R1=H; R2=CH3CO; --, Ethyl (2α, 3aβ, 7aβ)-Octahydro-1-[3-(acetylthio)propanoyl]-1H-indole-2-carboxylate], the IC50 is 3800 nM.
With `CC(CS)C(=O)N1[C@H](C(=O)O)C[C@@H]2CCCC[C@@H]21` (single isomer, unassigned; diastereomer a) [V: R=H; R1=CH3; R2=H; l, A, (1)-(2α, 3aβ, 7aβ)-Octahydro-1-(3-mercapto-2-methylpropanoyl)-1H-2-carboxylic Acid (Diastereomer A), Dicyclohexylamine Salt] the figure was 5.2 nM; with `CC(C)(C)C(=O)SCCC(=O)N1[C@H](C(=O)O)C[C@@H]2CCCC[C@@H]21` (relative stereo) [V: R=H; R1=H; R2=(CH3)3CCO; dl], 58 nM; with `CC(=O)SCCC(=O)N1[C@H](C(=O)O)C[C@@H]2CCCC[C@@H]21` (relative stereo) [V: R=H; R1=H; R2=CH3CO; --, (2α, 3aβ, 7aβ)-Octahydro-1-[3-(acetylthio)propanoyl]-1H-indole-2-carboxylic Acid], 450 nM.
As for `O=C(O)[C@@H]1C[C@@H]2CCCC[C@@H]2N1C(=O)CCS` (relative stereo) [V: R=H; R1=H; R2=H; --, (2α, 3aβ, 7aβ)-Octahydro-1-(3-mercaptopropanoyl)-1H-indole-2-carboxylic Acid], the IC50 was determined as 21 nM.
